According to publication PMC12749748, “Chemically-induced degradation of the endoplasmic-reticulum stress sensor IRE1 by a VHL-recruiting chimera” (Nature Communications, 2025):

Experiments:
AMO1 cells = experiment: Incucyte cell confluency, AMO1 cells; format: cell-based
Description: (§1) For non-adherent AMO1, KMS27, and OPM2 cells, cells were plated at 5000 cells/well in ultra-low attachment (ULA) 96-well plates (Costar, #7007) and centrifuged at 600 × g for 5 min for spheroid formation. For adherent U2OS and Colo201 cells, 2000 cells/well were seeded in a clear flat-bottom 96-well plate (Costar, #3595). Treatments were added at the time of cell seeding, and cells were cultured in complete RPMI media to a final volume of 200 µL/well. Cultures were maintained at 37 °C throughout the duration of the experiment. Cell confluency was tracked using the Incucyte live-cell imaging system (Sartorius S3). Picture frames were captured every 4 h with a 4× objective, and cell confluency (%) from the total well area as a function of time was calculated using the Incucyte software (version 2023 A Rev2).

IRE1:VHL [1] = target: T1, IRE1:VHL (Homo sapiens, UniProt O75460+P40337); experiment: NanoBRET IRE1:VHL interaction, WT IRE1, HEK293T cells; format: cell-based; parameters: N2731 (HaloTag-VHL); host or cells: HEK293T; details: HEK293T, 1 µM G6374 and a titration of G5758
Description: 8 × 10^5 293T cells per well were seeded in 6-well plates (Costar, #3516) and incubated at 37 °C, 5% CO2 for 6 h. A mixture of 0.2 µg ERN1 (IRE1)-NanoLuc Fusion Vector (Promega, NV1321), 2 µg HaloTag-VHL Fusion Vector (Promega, N2731), 6 µl FuGENE HD Transfection Reagent (Promega, E2311), and 100 µL Opti-MEM I reduced serum medium (Gibco, #31985062) per well was incubated at room temperature for 20 min before adding to cells. For expression of IRE1 mutants, site-directed mutagenesis was performed using the ERN1-NanoLuc Fusion Vector as the DNA template, and the transfection mixture was prepared in the same way as WT IRE1. After 18 h, cells from 6-well plates were trypsinized, resuspended in Opti-MEM I reduced serum medium, and reseeded into 96-well plates (Costar, #3917), with or without the addition of HaloTag NanoBRET 618 Ligand (Promega, G9801). […] After 2 h of G6374 treatment, NanoBRET Nano-Glo Substrate (Promega, N1571) was added to cells. The 96-well plates were imaged by GloMax Discover Microplate Reader (Promega, GM3000) with the default “BRET: NanoBRET 618” protocol (Donor: 450 BP; Acceptor: 600 LP; Integration: 0.3 s). Data analysis was performed according to the user manual.

IRE1:VHL [2] = target: T1, IRE1:VHL; experiment: co-IP of endogenous VHL with endogenous IRE1 from AMO1 cells; format: cell-based; parameters: co-IP of endogenous VHL with endogenous IRE1 from AMO1 cells; endogenous in cells; host or cells: AMO1; details: G5758 in excess of G6374
Description: (§2) Cells were lysed in buffer containing 20 mM HEPES 7.2, 150 mM NaCl, and 1% Triton X-100, supplemented with fresh protease and phosphatase inhibitors (Invitrogen, #78440), cleared by centrifugation at 12,000 × g for 10 min, and analyzed by BCA protein assay (Thermo Fisher Scientific, #23227). Equal protein amounts were loaded, separated by SDS-PAGE, electrotransferred to nitrocellulose membranes using the iBLOT2 system (Invitrogen), and blocked in 5% nonfat milk solution for 60 min. Membranes were probed with primary antibodies at 1:1000 dilution in 5% milk at 4 °C overnight. Signal was detected using appropriate horseradish peroxidase (HRP)-conjugated secondary antibodies at 1:10,000 in 5% milk at room temperature for 1–2 h. Bands were visualized by the Azure 600 western blot imaging system (Azure Biosystems). For in vitro ubiquitination assays performed with Me-Ub, bands were visualized by the Odyssey CLx Imager (LI‑COR) after incubating the blots with the IRDye 800CW (LI-COR) secondary antibodies at 1:10,000 in Intercept Blocking Buffer (LI-COR) at room temperature for 1–2 h.
IRE1.LD antibodies were conjugated to agarose beads using the AminoLink® Plus Immobilization Kit (Thermo Fisher, #44894). […]

BRD4 = test system: BRD4; parameters: method as in earlier work; details: VHL:PROTAC:BRD4; cited from earlier work
VCB (VHL:EloC:EloB) = VCB (VHL:EloC:EloB) (Homo sapiens, UniProt P40337); experiment: Surface plasmon resonance, binary interaction with VCB; format: binding; details: SPR, immobilised VCB, 20 °C, 1 to 1 kinetic model
Description: All SPR experiments in this paper were recorded on a Biacore S200 instrument; all protein captures and data collection were at 20 °C.
For binary interactions with G6374: a Xantec SAHC 200 M (streptavidin) chip was inserted into the instrument and primed into running buffer [50 mM HEPES (pH 7.4), 150 mM NaCl, 0.001% Tween 20, 0.2% PEG3350, 0.25 mM TCEP, and 2% DMSO]. Biotinylated human IRE1.KR protein was captured on FC2 to 2-4000 RU, biotinylated VHL in complex with Elongin B (VHL/EloB) was captured on FC4 to 1-2000 RU, data were collected, and all referenced to FC1. Affinity for G6374 was measured using a titration series, injected from low to high with an 8-point, 2-fold dilution dose response with a top concentration of 0.5 μM in both single cycle (single cycle kinetics (SCK)) and multi cycle kinetics (MCK) formats. For MCK experiments, an association time of 45 s and a dissociation time of 200 s with a flow rate of 50 μL/min. For SCK experiments, an association time of 45 s and a dissociation time of 2000 s with a flow rate of 50 μL/min were used. All data were analyzed using Insight software (Cytiva) using a 1 to 1 kinetic binding model.

WDR5 = test system: WDR5; parameters: method as in earlier work; details: VHL:PROTAC:WDR5; cited from earlier work
OPM2 cells = experiment: Incucyte cell confluency, OPM2 cells; format: cell-based; details: OPM2 shIRE1 cells, titration
Description: as §1

KMS27 cells = experiment: Incucyte cell confluency, KMS27 cells; format: cell-based; details: KMS27 shIRE1 cells, titration
Description: as §1

[3] = test system: IRE1-dependent or -independent cell lines; experiment: Incucyte, IRE1-dependent or -independent cell lines together; format: cell-based
Description: as §1

IRE1 = IRE1 (Homo sapiens, UniProt O75460); experiment: Endogenous IRE1 protein levels in AMO1 or H929 cells (immunoblot); format: cell-based; parameters: Immunoblot (IB) analysis of endogenous IRE1 depletion in AMO1 cells; endogenous in cells; host or cells: AMO1, KMS27, H929; details: 1 µM, 4 hr
Description: as §2

## CC(=O)c1cnc2ccc(-c3cc(Cl)c(O)c(Cl)c3)nc2c1N[C@H]1CC[C@H](CN(C)C)CC1 [OTSSP167, reference compound]
AMO1 cells; at 3X the IC50 of OTSSP167
  proliferation of AMO1 cells: did not

## O=S(=O)(Cc1ccccc1)Nc1c(F)cc(Oc2ncccc2-c2ccnc(N[C@@H]3CNC[C@@H](F)C3)n2)c(F)c1F [G5758, reference compound]
IRE1:VHL [1]
  disruption of G6374-induced IRE1:VHL interaction (NanoBRET): could disrupt G6374-induced interaction between IRE1 and VHL
IRE1:VHL [2]
  competition with G6374-induced IRE1:VHL association and IRE1 depletion (co-IP): attenuated the induced association between IRE1 and VHL as well as the depletion of IRE1

## CC(=O)N[C@H](C(=O)N1C[C@H](O)C[C@H]1C(=O)NCc1ccc(-c2scnc2C)cc1)C(C)(C)C [VH032, reference compound]
VCB (VHL:EloC:EloB)
  ka: 550000 M⁻¹ s⁻¹
  kd: 0.13 s⁻¹

## Cc1ncsc1-c1ccc([C@H](C)NC(=O)[C@@H]2C[C@@H](O)CN2C(=O)[C@@H](NC(=O)CNC(=O)c2ccc(F)c(-c3ccc(N4C[C@@H](C)N(C)[C@@H](C)C4)c(NC(=O)c4c[nH]c(=O)cc4C(F)(F)F)c3)c2)C(C)(C)C)cc1 [MS67]
WDR5
  DC50: 3.7 nM
  Dmax: 94%

## Cc1ncsc1-c1ccc(CNC(=O)[C@@H]2C[C@H](O)CN2C(=O)[C@@H](NC(=O)CCCCN2CCN(C3CCC(Nc4ncc5ccc(=O)n(C(C)C)c5n4)CC3)CC2)C(C)(C)C)cc1 (some centres unmarked) [G2642]
OPM2 cells
  growth inhibition (cell confluency): neither its epimer control G2642, nor the VHL ligand VH032, induced a concentration-dependent growth inhibition
AMO1 cells; AMO1 shIRE1 cells, titration
  growth inhibition (cell confluency): neither its epimer control G2642, nor the VHL ligand VH032, induced a concentration-dependent growth inhibition
KMS27 cells
  growth inhibition (cell confluency): neither its epimer control G2642, nor the VHL ligand VH032, induced a concentration-dependent growth inhibition
[3]
  anti-proliferative activity: no anti-proliferative activity
IRE1
  degradation of cellular IRE1: does not degrade cellular IRE1
